No end group written: not given here.
Assay: In vitro peptide solubility assay (qualitative, pellet after centrifugation)
Type: physicochemical
Conditions: Tris buffer, pH 7.4; read-out: Solubilty
Description: Solubility of peptides of the invention was obtained using a qualitative assay where the peptide was dissolved in Tris buffer, pH 7.4 at 1, 5, or 10 mg/ml, vortexed briefly, and then centrifuged at 16,000 g for 30 min.

solubility [µg/mL]	Substance
> 10000	Ac-DFGAPL-NH2 (N-terminus and C-terminus assumed) [SEQ ID NO. 3]
< 1000	NFGAPLS [SEQ ID NO. 11]

The remaining lines, values behind:

Substance	solubility [µg/mL]
DFGAILD [SEQ ID NO. 12]	≥ 2000
DFGAPL [SEQ ID NO. 2]	> 10000
DFGAPLD [SEQ ID NO. 4]	> 10000
NFGAILS [SEQ ID NO. 10]	< 200

Reference: patent US20070155955A1, “Amylin aggregation inhibitors and use thereof” (APPLIED RESEARCH SYSTEMS ARS HOLDING N.V., priority 2003, published 2007)
